Test results reported in patent US12441689B2 (EpiVario, Inc., priority 2019, dated 2025).

molecular target: human ACSS2 protein (Homo sapiens (Human), UniProt Q9NR19); test: ACSS2 Cell-Free Activity Assay (Cell-Free IC50); conditions: 10 nM human ACSS2 protein, 90 minutes at 37 C, pyrophosphatase-coupled, Biomol Green absorbance at 620 nm; read-out: ACSS2 Biochemical IC50
Source text: ACSS2 Cell-Free Activity Assay (Cell-Free IC50)

Chain of human ACSS2 protein (Q9NR19 whole entry): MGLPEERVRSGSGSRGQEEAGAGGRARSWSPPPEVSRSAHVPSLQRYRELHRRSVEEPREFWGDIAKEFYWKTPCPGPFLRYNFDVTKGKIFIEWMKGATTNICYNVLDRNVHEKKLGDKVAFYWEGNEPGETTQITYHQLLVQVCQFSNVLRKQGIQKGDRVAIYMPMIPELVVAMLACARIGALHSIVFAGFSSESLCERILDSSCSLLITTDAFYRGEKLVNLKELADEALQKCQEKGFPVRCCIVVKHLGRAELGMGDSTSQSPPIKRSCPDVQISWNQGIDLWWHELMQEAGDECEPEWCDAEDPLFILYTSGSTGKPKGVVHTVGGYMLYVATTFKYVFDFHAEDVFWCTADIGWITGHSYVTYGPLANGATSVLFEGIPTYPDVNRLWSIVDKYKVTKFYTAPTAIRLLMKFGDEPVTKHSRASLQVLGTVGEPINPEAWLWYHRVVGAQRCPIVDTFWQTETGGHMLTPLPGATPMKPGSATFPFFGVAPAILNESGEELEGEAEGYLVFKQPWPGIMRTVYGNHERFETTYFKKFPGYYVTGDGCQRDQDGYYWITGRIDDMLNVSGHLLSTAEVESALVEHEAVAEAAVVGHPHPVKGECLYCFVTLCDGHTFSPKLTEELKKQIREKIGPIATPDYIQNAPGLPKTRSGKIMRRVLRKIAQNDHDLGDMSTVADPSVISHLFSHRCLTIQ

Row | SMILES | IC50
1 | CCC(F)(F)c1cccc(NC(=O)c2c(C)[nH]c(-c3ccc(OC)cc3)c2O)c1 [Compound 235, N-(3-(1,1-difluoropropyl)phenyl)-4-hydroxy-5-(4-methoxyphenyl)-2-methyl-1H-pyrrole-3-carboxamide] | > 100 nM
2 | CC1=NN(c2ccc(OC(F)F)cc2)C(=O)[C@]1(C)C(=O)Nc1cccc(C(C)(F)F)c1 [Compound 170, (4S)—N-(3-(1,1-difluoroethyl)phenyl)-1-(4-(difluoromethoxy)phenyl)-3,4-dimethyl-5-oxo-4,5-dihydro-1H-pyrazole-4-carboxamide] | > 100 nM
3 | CC(F)(F)c1cccc(NC(=O)c2cnc(-c3ccc(OC(F)F)cc3)nc2)c1 [Compound 173, N-(3-(1,1-difluoroethyl)phenyl)-2-(4-(difluoromethoxy)phenyl)pyrimidine-5-carboxamide] | > 100 nM
4 | CC1=NN(c2ccc(OC(F)(F)F)cc2)C(=O)C1(F)C(=O)Nc1cccc(C(C)(F)F)c1 (stereo not drawn) [Compound 203, N-(3-(1,1-difluoroethyl)phenyl)-4-fluoro-3-methyl-5-oxo-1-(4-(trifluoromethoxy)phenyl)-4,5-dihydro-1H-pyrazole-4-carboxamide] | > 100 nM
5 | CCOc1c(C(=O)Nc2cccc(C(C)(F)F)c2)c(C)nn1-c1ccc(OC(F)F)cc1 [Compound 201, N-(3-(1,1-difluoroethyl)phenyl)-1-(4-(difluoromethoxy)phenyl)-5-ethoxy-3-methyl-1H-pyrazole-4-carboxamide] | > 100 nM
6 | CCC(F)(F)c1cccc(NC(=O)c2c(C)nn(-c3ccc(OC)cc3)c2F)c1 [Compound 229, N-(3-(1,1-difluoropropyl)phenyl)-5-fluoro-1-(4-methoxyphenyl)-3-methyl-1H-pyrazole-4-carboxamide] | 1 to 100 nM
7 | CCC(F)(F)c1cccc(NC(=O)c2nc(-c3ccc(OC(F)F)c(-c4ccccc4)c3)oc2C)c1 [Compound 123, 2-[4-(difluoromethoxy)-3-phenyl-phenyl]-N-[3-(1,1-difluoropropyl)phenyl]-5-methyl-oxazole-4-carboxamide] | > 100 nM
8 | CCc1c(C(=O)Nc2cccc(C(C)(F)F)c2)c(C)nn1-c1ccc(OC(F)F)c(-c2cccnc2)c1 [Compound 152, N-[3-(1,1-difluoroethyl)phenyl]-1-[4-(difluoromethoxy)-3-(3-pyridyl)phenyl]-5-ethyl-3-methyl-pyrazole-4-carboxamide] | > 100 nM
9 | CCC(F)(F)c1cccc(NC(=O)c2nc(C)c(-c3ccc(OC(F)F)cc3)nc2C)c1 [Compound 105, 5-(4-(difluoromethoxy)phenyl)-N-(3-(1,1-difluoropropyl)phenyl)-3,6-dimethylpyrazine-2-carboxamide] | > 100 nM
10 | Cc1oc(-c2ccc(OC(F)F)c(-c3ccccn3)c2)nc1C(=O)Nc1cccc(C(C)(F)F)c1 [Compound 258, N-(3-(1,1-difluoroethyl)phenyl)-2-(4-(difluoromethoxy)-3-(pyridin-2-yl)phenyl)-5-methyloxazole-4-carboxamide] | > 100 nM
11 | Cc1c(C(=O)Nc2cccc(C(C)(F)F)c2)c(=O)n(-c2ccc3cc[nH]c3c2)n1Cc1ccccc1 [Compound 108, 1-benzyl-N-[3-(1,1-difluoroethyl)phenyl]-2-(1H-indol-6-yl)-5-methyl-3-oxo-pyrazole-4-carboxamide] | > 100 nM
12 | CC1=NN(c2ccc(C=C(c3ccccc3)c3ccccc3)c(-c3cccnc3)c2)C(=O)C1C(=O)Nc1cccc(C(C)(F)F)c1 (stereo not drawn) [Compound 109] | 1 to 100 nM
13 | CCC(F)(F)c1cccc(NC(=O)C2C(=O)N(c3cc(Cc4ccccc4)c(OC)c(-c4ccccc4)c3)N=C2C)c1 (stereo not drawn) [Compound 121, 1-(5-benzyl-6-methoxy-[1,1′-biphenyl]-3-yl)-N-(3-(1,1-difluoropropyl)phenyl)-3-methyl-5-oxo-4,5-dihydro-1H-pyrazole-4-carboxamide] | 1 to 100 nM
14 | Cc1nn(-c2ccc(OC(F)F)c(-c3ccccn3)c2)cc1C(=O)Nc1cccc(C(C)(F)F)c1 [Compound 175, N-[3-(1,1-difluoroethyl)phenyl]-1-[4-(difluoromethoxy)-3-(2-pyridyl)phenyl]-3-methyl-pyrazole-4-carboxamide] | 1 to 100 nM
15 | CCC(F)(F)c1cccc(NC(=O)c2c(C)[nH]c3ccc(OC)cc3c2=O)c1 [Compound 272, N-(3-(1,1-difluoropropyl)phenyl)-6-methoxy-2-methyl-4-oxo-1,4-dihydroquinoline-3-carboxamide] | 1 to 100 nM
16 | CCCc1cc(N2N=C(C)C(C(=O)Nc3cccc(C(C)(F)F)c3)C2=O)cc(-c2ccccc2)c1OC (stereo not drawn) [Compound 161, N-(3-(1,1-difluoroethyl)phenyl)-1-(6-methoxy-5-propyl-[1,1′-biphenyl]-3-yl)-3-methyl-5-oxo-4,5-dihydro-1H-pyrazole-4-carboxamide] | < 1 nM
17 | CCC(F)(F)c1cccc(NC(=O)c2c(C)nn(-c3ccc(OC)cc3)[n+]2[O-])c1 [Compound 253, 5-((3-(1,1-difluoropropyl)phenyl)carbamoyl)-2-(4-methoxyphenyl)-4-methyl-2H-1,2,3-triazole 1-oxide] | > 100 nM
18 | CCC(F)(F)c1cccc(NC(=O)c2nc(-c3ccc(OC)cc3)oc2C)c1 [Compound 116, N-(3-(1,1-difluoropropyl)phenyl)-2-(4-methoxyphenyl)-5-methyloxazole-4-carboxamide] | > 100 nM
19 | Cc1nn(-c2ccc(OC(F)F)cc2)cc1C(=O)Nc1cccc(C(C)(F)F)c1 [Compound 196, N-(3-(1,1-difluoroethyl)phenyl)-1-(4-(difluoromethoxy)phenyl)-3-methyl-1H-pyrazole-4-carboxamide] | 1 to 100 nM
20 | CC1=NN(c2ccc(OC(F)F)c(-c3cccnc3)c2)C(=O)C1(F)C(=O)Nc1cccc(C(C)(F)F)c1 (stereo not drawn) [Compound 206, N-(3-(1,1-difluoroethyl)phenyl)-1-(4-(difluoromethoxy)-3-(pyridin-3-yl)phenyl)-4-fluoro-3-methyl-5-oxo-4,5-dihydro-1H-pyrazole-4-carboxamide] | < 1 nM
21 | Cc1nn(-c2ccc(OC(F)F)c(-c3cccnc3)c2)c(OC(=O)N2CCN(C(C)(C)CO)CC2)c1C(=O)Nc1cccc(C(C)(F)F)c1 [Compound 183, 4-((3-(1,1-difluoroethyl)phenyl)carbamoyl)-1-(4-(difluoromethoxy)-3-(pyridin-3-yl)phenyl)-3-methyl-1H-pyrazol-5-yl 4-(1-hydroxy-2-methylpropan-2-yl)piperazine-1-carboxylate] | > 100 nM
22 | CCC(F)(F)c1cccc(NC(=O)c2nc(-c3ccc(OC(F)F)c(-c4cccnc4)c3)oc2C)c1 [Compound 221, 2-(4-(difluoromethoxy)-3-(pyridin-3-yl)phenyl)-N-(3-(1,1-difluoropropyl)phenyl)-5-methyloxazole-4-carboxamide] | > 100 nM
23 | CCC(F)(F)c1cccc(NC(=O)c2nc(C)c(-c3ccc(OC(F)F)c(-c4ccccc4)c3)nc2C)c1 [Compound 103, 5-(6-(difluoromethoxy)-[1,1′-biphenyl]-3-yl)-N-(3-(1,1-difluoropropyl)phenyl)-3,6-dimethylpyrazine-2-carboxamide] | > 100 nM
24 | CC1=NN(c2ccc(OC(F)F)c(-c3ccncc3)c2)C(=O)C1(F)C(=O)Nc1cccc(C(C)(F)F)c1 (stereo not drawn) [Compound 204, N-(3-(1,1-difluoroethyl)phenyl)-1-(4-(difluoromethoxy)-3-(pyridin-4-yl)phenyl)-4-fluoro-3-methyl-5-oxo-4,5-dihydro-1H-pyrazole-4-carboxamide] | < 1 nM
